Tests used:
Assay in all cases: KINOMEscan competition binding
Conditions in all cases: compound 1.0 µM
ABL2 (human) = ABL2 (human) (UniProt P42684)
ACVRL1 (human) = ACVRL1 (human) (UniProt P37023)
ADCK4 (human) = ADCK4 (human) (UniProt Q96D53)
ANKK1 (human) = ANKK1 (human) (UniProt Q8NFD2)
BLK (human) = BLK (human) (UniProt P51451)
BMP2K (human) = BMP2K (human) (UniProt Q9NSY1)
BMPR2 (human) = BMPR2 (human) (UniProt Q13873)
CAMK2G (human) = CAMK2G (human) (UniProt Q13555)
CDK4 CCND1 (human) = CDK4 CCND1 (human) (UniProt P11802+P24385)
CHEK1 (human) = CHEK1 (human) (UniProt O14757)
CLK4 (human) = CLK4 (human) (UniProt Q9HAZ1)
CPK1 (P.falciparum) = test system: CPK1 (P.falciparum)
CSNK2A2 (human) = CSNK2A2 (human) (UniProt P19784)
DYRK1A (human) = DYRK1A (human) (UniProt Q13627)
DYRK1B (human) = DYRK1B (human) (UniProt Q9Y463)
DYRK2 (human) = DYRK2 (human) (UniProt Q92630)
[1] = test system: EGFR (human), P00533 [752-759 del]
[2] = test system: EGFR (human), P00533 [G719S]
EPHA8 (human) = EPHA8 (human) (UniProt P29322)
FGFR3 (human) = FGFR3 (human) (UniProt P22607)
FYN (human) = FYN (human) (UniProt P06241)
ITK (human) = ITK (human) (UniProt Q08881)
[3] = test system: KIT (human), P10721 [A829P]
LTK (human) = LTK (human) (UniProt P29376)
PAK1 (human) = PAK1 (human) (UniProt Q13153)
PIK3CD (human) = PIK3CD (human) (UniProt O00329)
PRKD1 (human) = PRKD1 (human) (UniProt Q15139)
PRKD2 (human) = PRKD2 (human) (UniProt Q9BZL6)
PRKG1 (human) = PRKG1 (human) (UniProt Q13976)
PTK2 (human) = PTK2 (human) (UniProt Q05397)
RPS6KA3 KD1 (human) = RPS6KA3 KD1 (human) (UniProt P51812)
RPS6KA3 KD2 (human) = RPS6KA3 KD2 (human) (UniProt P51812)
RPS6KA4 KD2 (human) = RPS6KA4 KD2 (human) (UniProt O75676)
SGK3 (human) = SGK3 (human) (UniProt Q96BR1)
STK16 (human) = STK16 (human) (UniProt O75716)
TEC (human) = TEC (human) (UniProt P42680)
TEK (human) = TEK (human) (UniProt Q02763)
[4] = target: TYK2 JH2 pseudokinase (human) (UniProt P29597)
ZAP70 (human) = ZAP70 (human) (UniProt P43403)
Sequence of ZAP70 (human) (P43403 whole entry, looked up): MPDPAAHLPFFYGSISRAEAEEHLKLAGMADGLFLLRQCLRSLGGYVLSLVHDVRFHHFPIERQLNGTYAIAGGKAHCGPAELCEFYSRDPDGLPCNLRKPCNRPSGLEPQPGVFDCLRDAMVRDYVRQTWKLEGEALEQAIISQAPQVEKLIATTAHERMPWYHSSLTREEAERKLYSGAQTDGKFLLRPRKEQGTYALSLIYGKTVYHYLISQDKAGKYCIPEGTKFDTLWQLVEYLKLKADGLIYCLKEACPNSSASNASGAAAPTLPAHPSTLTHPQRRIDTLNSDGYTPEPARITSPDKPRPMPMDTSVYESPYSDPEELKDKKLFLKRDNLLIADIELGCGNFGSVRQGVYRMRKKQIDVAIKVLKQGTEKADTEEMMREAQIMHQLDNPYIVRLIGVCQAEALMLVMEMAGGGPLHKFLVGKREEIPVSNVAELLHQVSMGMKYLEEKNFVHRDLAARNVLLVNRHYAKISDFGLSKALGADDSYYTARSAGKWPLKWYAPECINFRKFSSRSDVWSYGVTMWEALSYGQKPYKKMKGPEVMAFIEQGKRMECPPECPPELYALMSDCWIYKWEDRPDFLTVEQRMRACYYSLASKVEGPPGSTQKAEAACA

Sequence of STK16 (human) (O75716 whole entry, looked up): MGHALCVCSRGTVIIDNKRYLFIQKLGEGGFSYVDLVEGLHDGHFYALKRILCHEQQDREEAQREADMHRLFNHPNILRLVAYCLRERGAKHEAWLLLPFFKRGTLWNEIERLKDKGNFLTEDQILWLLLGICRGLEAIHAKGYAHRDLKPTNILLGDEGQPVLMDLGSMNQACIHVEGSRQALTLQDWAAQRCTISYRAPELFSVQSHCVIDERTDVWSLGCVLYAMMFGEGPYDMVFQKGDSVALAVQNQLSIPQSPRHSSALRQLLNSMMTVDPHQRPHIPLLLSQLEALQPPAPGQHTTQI
Sequence of ACVRL1 (human) (P37023 whole entry, looked up): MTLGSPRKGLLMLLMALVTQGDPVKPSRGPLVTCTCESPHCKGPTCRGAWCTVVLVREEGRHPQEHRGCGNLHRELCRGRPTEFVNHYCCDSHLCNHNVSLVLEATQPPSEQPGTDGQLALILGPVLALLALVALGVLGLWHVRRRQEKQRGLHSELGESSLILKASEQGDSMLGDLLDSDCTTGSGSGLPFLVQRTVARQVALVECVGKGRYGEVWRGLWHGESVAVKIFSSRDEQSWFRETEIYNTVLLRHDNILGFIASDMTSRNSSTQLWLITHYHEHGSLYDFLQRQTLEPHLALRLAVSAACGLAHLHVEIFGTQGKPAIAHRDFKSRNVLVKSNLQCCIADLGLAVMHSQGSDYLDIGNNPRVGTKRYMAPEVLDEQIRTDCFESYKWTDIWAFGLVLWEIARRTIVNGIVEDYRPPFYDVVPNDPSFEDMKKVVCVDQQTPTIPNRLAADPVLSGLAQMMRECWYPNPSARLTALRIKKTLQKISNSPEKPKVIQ
Sequence of PRKD2 (human) (Q9BZL6 whole entry, looked up): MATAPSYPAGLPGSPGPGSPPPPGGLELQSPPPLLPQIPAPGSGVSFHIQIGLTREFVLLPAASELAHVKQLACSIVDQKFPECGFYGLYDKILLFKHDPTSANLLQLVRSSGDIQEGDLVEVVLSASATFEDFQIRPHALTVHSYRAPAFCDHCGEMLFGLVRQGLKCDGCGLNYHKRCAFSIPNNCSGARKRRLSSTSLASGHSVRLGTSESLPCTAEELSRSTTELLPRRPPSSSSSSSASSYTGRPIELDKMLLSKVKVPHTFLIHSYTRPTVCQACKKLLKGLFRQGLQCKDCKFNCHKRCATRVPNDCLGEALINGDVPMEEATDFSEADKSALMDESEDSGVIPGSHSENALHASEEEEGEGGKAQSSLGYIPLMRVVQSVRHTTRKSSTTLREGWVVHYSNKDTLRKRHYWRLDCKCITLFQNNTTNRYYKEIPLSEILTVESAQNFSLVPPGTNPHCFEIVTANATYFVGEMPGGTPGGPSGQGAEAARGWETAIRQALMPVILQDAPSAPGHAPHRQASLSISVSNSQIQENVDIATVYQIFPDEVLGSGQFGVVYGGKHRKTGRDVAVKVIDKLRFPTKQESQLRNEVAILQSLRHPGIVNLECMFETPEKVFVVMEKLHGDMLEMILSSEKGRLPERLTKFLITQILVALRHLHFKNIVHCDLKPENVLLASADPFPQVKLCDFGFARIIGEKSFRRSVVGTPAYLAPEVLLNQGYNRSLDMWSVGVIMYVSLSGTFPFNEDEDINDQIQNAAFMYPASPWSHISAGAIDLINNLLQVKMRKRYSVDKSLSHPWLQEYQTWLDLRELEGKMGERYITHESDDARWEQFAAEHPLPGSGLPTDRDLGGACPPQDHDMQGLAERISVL
Sequence of BMP2K (human) (Q9NSY1 whole entry, looked up): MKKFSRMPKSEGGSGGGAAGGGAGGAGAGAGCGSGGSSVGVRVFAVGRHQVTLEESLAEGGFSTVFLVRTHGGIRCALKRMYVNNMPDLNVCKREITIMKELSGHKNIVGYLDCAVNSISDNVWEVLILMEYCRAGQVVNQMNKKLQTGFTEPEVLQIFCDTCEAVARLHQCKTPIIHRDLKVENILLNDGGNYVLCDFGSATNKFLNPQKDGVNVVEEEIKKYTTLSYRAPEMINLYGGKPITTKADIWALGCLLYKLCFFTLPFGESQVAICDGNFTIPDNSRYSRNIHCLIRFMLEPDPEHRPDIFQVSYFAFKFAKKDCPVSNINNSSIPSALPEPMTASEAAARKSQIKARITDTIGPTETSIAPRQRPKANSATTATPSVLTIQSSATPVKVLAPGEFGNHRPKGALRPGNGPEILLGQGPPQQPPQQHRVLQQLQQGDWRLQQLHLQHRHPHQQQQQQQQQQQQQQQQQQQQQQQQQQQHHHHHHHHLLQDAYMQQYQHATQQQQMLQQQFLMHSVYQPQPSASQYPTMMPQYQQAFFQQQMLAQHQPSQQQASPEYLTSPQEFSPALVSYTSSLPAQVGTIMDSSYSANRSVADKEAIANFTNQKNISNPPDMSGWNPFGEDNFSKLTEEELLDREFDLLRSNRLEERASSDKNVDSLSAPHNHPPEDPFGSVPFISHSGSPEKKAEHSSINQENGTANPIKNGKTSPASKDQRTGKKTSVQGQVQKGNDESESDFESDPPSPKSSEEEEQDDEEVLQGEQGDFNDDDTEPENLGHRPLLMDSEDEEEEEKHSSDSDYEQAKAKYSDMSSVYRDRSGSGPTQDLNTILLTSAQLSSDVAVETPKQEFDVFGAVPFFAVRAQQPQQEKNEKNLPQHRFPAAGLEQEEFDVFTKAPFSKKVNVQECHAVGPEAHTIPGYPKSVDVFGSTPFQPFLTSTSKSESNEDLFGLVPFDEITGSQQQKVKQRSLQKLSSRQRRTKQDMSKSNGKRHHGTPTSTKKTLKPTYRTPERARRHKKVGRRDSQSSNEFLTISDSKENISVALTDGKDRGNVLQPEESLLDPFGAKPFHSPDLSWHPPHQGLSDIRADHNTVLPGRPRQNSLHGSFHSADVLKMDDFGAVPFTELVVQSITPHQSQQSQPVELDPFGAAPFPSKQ
Sequence of RPS6KA4 KD2 (human) (O75676 whole entry, looked up): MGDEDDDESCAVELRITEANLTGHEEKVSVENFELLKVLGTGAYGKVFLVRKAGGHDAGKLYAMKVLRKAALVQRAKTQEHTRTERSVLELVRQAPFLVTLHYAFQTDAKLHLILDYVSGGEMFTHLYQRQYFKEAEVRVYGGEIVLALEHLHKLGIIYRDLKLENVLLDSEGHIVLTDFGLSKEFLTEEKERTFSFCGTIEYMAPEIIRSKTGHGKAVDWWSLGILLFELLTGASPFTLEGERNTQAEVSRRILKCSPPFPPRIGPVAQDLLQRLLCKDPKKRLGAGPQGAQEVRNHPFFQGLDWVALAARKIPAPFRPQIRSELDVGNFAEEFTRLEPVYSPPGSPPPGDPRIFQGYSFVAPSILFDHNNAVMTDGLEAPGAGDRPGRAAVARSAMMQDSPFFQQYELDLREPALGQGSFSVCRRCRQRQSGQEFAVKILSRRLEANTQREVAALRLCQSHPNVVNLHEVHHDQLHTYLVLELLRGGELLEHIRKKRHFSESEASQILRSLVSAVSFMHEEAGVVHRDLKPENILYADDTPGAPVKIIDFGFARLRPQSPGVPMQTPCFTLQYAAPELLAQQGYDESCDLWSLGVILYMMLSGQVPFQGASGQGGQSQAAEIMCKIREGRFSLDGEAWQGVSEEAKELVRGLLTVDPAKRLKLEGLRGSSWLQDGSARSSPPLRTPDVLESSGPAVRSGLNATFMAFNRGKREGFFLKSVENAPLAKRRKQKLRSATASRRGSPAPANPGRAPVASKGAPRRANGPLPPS
Sequence of ITK (human) (Q08881 whole entry, looked up): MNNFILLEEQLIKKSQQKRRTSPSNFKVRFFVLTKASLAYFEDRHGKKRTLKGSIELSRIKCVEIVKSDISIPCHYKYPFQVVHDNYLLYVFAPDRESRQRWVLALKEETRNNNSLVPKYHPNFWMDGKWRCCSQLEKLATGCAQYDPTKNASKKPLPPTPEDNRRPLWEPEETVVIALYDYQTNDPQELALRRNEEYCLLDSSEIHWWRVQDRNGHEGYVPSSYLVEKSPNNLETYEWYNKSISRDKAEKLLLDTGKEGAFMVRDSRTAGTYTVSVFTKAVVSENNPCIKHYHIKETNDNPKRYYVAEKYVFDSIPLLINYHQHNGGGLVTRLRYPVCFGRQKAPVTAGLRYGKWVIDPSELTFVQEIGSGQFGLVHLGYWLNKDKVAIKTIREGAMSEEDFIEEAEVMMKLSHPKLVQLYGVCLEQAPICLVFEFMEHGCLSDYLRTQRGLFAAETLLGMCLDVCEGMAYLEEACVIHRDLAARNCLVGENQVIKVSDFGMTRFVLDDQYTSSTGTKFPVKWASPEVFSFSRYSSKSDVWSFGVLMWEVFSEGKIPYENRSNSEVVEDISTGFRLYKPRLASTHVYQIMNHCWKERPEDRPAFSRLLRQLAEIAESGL

CNc1nc(Nc2ccc(C(=O)N3CCOCC3)cc2OC)ncc1Cl
kinase still bound, per cent of control (ABL2 (human)): 100%
kinase still bound, per cent of control (ACVRL1 (human)): 100%
kinase still bound, per cent of control (ADCK4 (human)): 100%
kinase still bound, per cent of control (ANKK1 (human)): 100%
kinase still bound, per cent of control (BLK (human)): 100%
kinase still bound, per cent of control (BMP2K (human)): 79%
kinase still bound, per cent of control (BMPR2 (human)): 85%
kinase still bound, per cent of control (CAMK2G (human)): 93%
residual activity (CDK4 CCND1 (human)): 100%
kinase still bound, per cent of control (CHEK1 (human)): 100%
kinase still bound, per cent of control (CLK4 (human)): 100%
kinase still bound, per cent of control (CPK1 (P.falciparum)): 78%
kinase still bound, per cent of control (CSNK2A2 (human)): 74%
kinase still bound, per cent of control (DYRK1A (human)): 100%
kinase still bound, per cent of control (DYRK1B (human)): 100%
kinase still bound, per cent of control (DYRK2 (human)): 91%
kinase still bound, per cent of control [1]: 100%
kinase still bound, per cent of control [2]: 100%
kinase still bound, per cent of control (EPHA8 (human)): 100%
kinase still bound, per cent of control (FGFR3 (human)): 100%
kinase still bound, per cent of control (FYN (human)): 56%
kinase still bound, per cent of control (ITK (human)): 100%
kinase still bound, per cent of control [3]: 93%
kinase still bound, per cent of control (LTK (human)): 50%
kinase still bound, per cent of control (PAK1 (human)): 100%
kinase still bound, per cent of control (PIK3CD (human)): 69%
kinase still bound, per cent of control (PRKD1 (human)): 83%
kinase still bound, per cent of control (PRKD2 (human)): 84%
kinase still bound, per cent of control (PRKG1 (human)): 82%
kinase still bound, per cent of control (PTK2 (human)): 88%
kinase still bound, per cent of control (RPS6KA3 KD1 (human)): 100%
kinase still bound, per cent of control (RPS6KA3 KD2 (human)): 95%
kinase still bound, per cent of control (RPS6KA4 KD2 (human)): 23%
kinase still bound, per cent of control (SGK3 (human)): 100%
kinase still bound, per cent of control (STK16 (human)): 100%
kinase still bound, per cent of control (TEC (human)): 100%
kinase still bound, per cent of control (TEK (human)): 100%
kinase still bound, per cent of control [4]: 100%
kinase still bound, per cent of control (ZAP70 (human)): 92%

— the kinase profiling compilation of Christmann-Franck et al. (2016)
